Test systems include CAKI-1 renal; NCI/ADR-RES ovarian; MDA-MB-231 breast; EKVX NSCLC; HCT-116 colon; M14 melanoma; ACHN renal; SNB-19 CNS; RPMI-8226 leukemia; RXF 393 renal.
Holding throughout (assay): NCI tumour cell line growth inhibition, 48 h

The structures appear in SMILES notation. “And” between values parts separate entries of the source, which are not always exact repeats. Equal values may be shown once.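 Test compounds were applied to cells in 96-well plates for 48 hours at 5 doses. GI50: concentration for 50% inhibition of growth. Definition used: TGI = concentration required for complete inhibition of growth.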 A value given as a limit tells only on which side of the number the result lay.

With `CC#CC#C/C(=C/C=CC(=O)OC)SC`, the TGI with CAKI-1 renal, in the test with NCI/ADR-RES ovarian, in the test with MDA-MB-231 breast, in the test on EKVX NSCLC, with HCT-116 colon and in the test on M14 melanoma was above 100 µM in each case.

Turning to `Cc1c(C(=O)c2ccccc2)[n+](=O)c2cc(F)c(F)cc2n1[O-]`, the GI50 in the test with CAKI-1 renal is 1.88 µM; with NCI/ADR-RES ovarian, 1.76 µM; in the test on MDA-MB-231 breast, 1.46 µM; in the test with EKVX NSCLC, 10.4 µM; in the test with ACHN renal it was 1.66 µM; in the test with M14 melanoma, 1.81 µM. Also, the GI50 with SNB-19 CNS was 2.3 µM. For the same molecule, the TGI in the test with CAKI-1 renal was determined as 3.45 µM; with NCI/ADR-RES ovarian it was 3.23 µM; with MDA-MB-231 breast it was 2.83 µM; in the test with EKVX NSCLC, 33 µM; in the test with ACHN renal, 3.02 µM; in the test with M14 melanoma, 3.36 µM. Moreover, the TGI with SNB-19 CNS turned out to be 5.3 µM.

Regarding `COc1cc(N2CCC(N)CC2)ccc1Nc1ncc(Cl)c(-c2c[nH]c3ccccc23)n1`, the GI50 was 1.28 µM with RPMI-8226 leukemia; 0.335 µM in the test with CAKI-1 renal; 1.49 µM in the test on NCI/ADR-RES ovarian; 1.22 µM with MDA-MB-231 breast; 0.292 µM with ACHN renal; 0.422 µM in the test with HCT-116 colon. For the same molecule, the GI50 in the test with M14 melanoma was 0.373 µM; in the test on SNB-19 CNS it was 1.38 µM; in the test on RXF 393 renal it was 0.338 µM. Further, the TGI turned out to be 3.89 µM in the test on RPMI-8226 leukemia; 2.1 µM with CAKI-1 renal; 4.11 µM with NCI/ADR-RES ovarian; 2.79 µM with MDA-MB-231 breast; 1.94 µM in the test with ACHN renal; 1.78 µM with HCT-116 colon. Also, the TGI in the test on M14 melanoma is 1.73 µM; in the test on SNB-19 CNS, 4.19 µM; with RXF 393 renal it was 1.41 µM.

Take `Cn1c(=O)c(Oc2ccc(F)cc2F)cc2cnc(NCC(C)(C)O)nc21`: the GI50 with RPMI-8226 leukemia, with CAKI-1 renal, in the test with NCI/ADR-RES ovarian, in the test with MDA-MB-231 breast, in the test with ACHN renal and in the test with HCT-116 colon was above 25 µM throughout. Besides, the GI50 with M14 melanoma, in the test on SNB-19 CNS and with RXF 393 renal was above 25 µM each time. Moreover, the TGI in the test with RPMI-8226 leukemia, in the test on CAKI-1 renal, in the test with NCI/ADR-RES ovarian, in the test on MDA-MB-231 breast, with ACHN renal and in the test on HCT-116 colon was above 25 µM throughout. In addition, the TGI in the test on M14 melanoma, with SNB-19 CNS and in the test with RXF 393 renal was above 25 µM throughout.

Turning to `Nc1c(C(=O)Nc2cccc(C(F)(F)F)c2)sc2nc3c(cc12)CCCCCC3`, the GI50 in the test with RPMI-8226 leukemia is 2.96 µM; in the test on CAKI-1 renal, 2.49 µM; with NCI/ADR-RES ovarian, 2.69 µM; with MDA-MB-231 breast it was 3.09 µM; in the test on ACHN renal, 1.85 µM; with HCT-116 colon, 1.69 µM. Moreover, the GI50 with M14 melanoma was 3.4 µM; with SNB-19 CNS it was 3.16 µM; in the test with RXF 393 renal it was 1.63 µM. The TGI amounted to 17.5 µM in the test with RPMI-8226 leukemia; 10.2 µM in the test with CAKI-1 renal; 10.9 µM with NCI/ADR-RES ovarian; 10.6 µM with MDA-MB-231 breast; 4.46 µM with ACHN renal; 4.34 µM in the test with HCT-116 colon. In addition, the TGI with M14 melanoma is 18 µM; in the test on SNB-19 CNS, 13.1 µM; in the test on RXF 393 renal it was 3.21 µM.

Regarding `CC(=O)N[C@@H](Cc1ccc(OP(=O)(O)O)cc1)C(=O)N[C@H]1CCC(=O)N2CCC[C@@H](C(=O)NC3CCc4ccccc43)N2C1=O` (some centres not stated), the GI50 with RPMI-8226 leukemia, with CAKI-1 renal, in the test on NCI/ADR-RES ovarian, with MDA-MB-231 breast, in the test on ACHN renal and in the test with HCT-116 colon was above 25 µM in each case. Moreover, the GI50 in the test with M14 melanoma, with SNB-19 CNS and with RXF 393 renal was above 25 µM in each case. Besides, the TGI with RPMI-8226 leukemia, in the test with CAKI-1 renal, in the test with NCI/ADR-RES ovarian, with MDA-MB-231 breast, with ACHN renal and in the test with HCT-116 colon was above 25 µM each time. The TGI in the test with M14 melanoma, in the test on SNB-19 CNS and in the test on RXF 393 renal was above 25 µM each time.

For the molecule `O=C(NN1C(=O)CSC1c1c(Cl)cccc1Cl)C(O)c1ccccc1` (configuration not stated), the GI50 with RPMI-8226 leukemia was 43.8 µM; in the test on CAKI-1 renal it was 23.9 µM; in the test with MDA-MB-231 breast, 19.2 µM; in the test on EKVX NSCLC, 59.6 µM; in the test with ACHN renal, 28.4 µM; in the test with HCT-116 colon, 36.7 µM. In addition, the GI50 with M14 melanoma is 35.7 µM; in the test on SNB-19 CNS, 71.6 µM; with RXF 393 renal it was 29.3 µM. Further, the TGI with RPMI-8226 leukemia, with CAKI-1 renal, with MDA-MB-231 breast, with EKVX NSCLC, in the test with ACHN renal and in the test with HCT-116 colon was above 100 µM each time. Also, the TGI with M14 melanoma, in the test with SNB-19 CNS and with RXF 393 renal was above 100 µM throughout.

Regarding `CC(C)C1=CC2=C(C(=O)C1=O)C13CCCC(C)(C)C1CC2OC3=O` (configuration not stated), the TGI with RPMI-8226 leukemia stood at 39.7 µM; with CAKI-1 renal, 44.1 µM; in the test with NCI/ADR-RES ovarian it was 40.1 µM; in the test with MDA-MB-231 breast it was 42.6 µM; with EKVX NSCLC, 31.7 µM; in the test on ACHN renal it was 38.6 µM. Further, the TGI was 33.2 µM with HCT-116 colon, 70.6 µM with M14 melanoma and above 100 µM in the test on SNB-19 CNS.

Consider `CN(C)c1ccc(/C=c2/c3cc(O)ccc3n3c2cc(-c2ccccc2)[n+]3C)cc1`, for which the GI50 with RPMI-8226 leukemia was 1.35 µM; with ACHN renal it was 4.78 µM; in the test with HCT-116 colon, 1.1 µM; in the test with SNB-19 CNS, 0.277 µM. Further, the TGI in the test with CAKI-1 renal is above 100 µM; in the test on NCI/ADR-RES ovarian, above 100 µM; in the test on MDA-MB-231 breast, 2.82 µM; with ACHN renal, above 100 µM; in the test with M14 melanoma it was 2.89 µM; in the test with SNB-19 CNS it was 1.7 µM and 1.47 µM. In addition, in the test with RXF 393 renal, the TGI amounted to 3.54 µM.

`COc1ccc(/C=C/C(=O)/C=C(O)/C=C/c2ccc(OC)c(OC)c2)cc1OC`: the GI50 with RPMI-8226 leukemia is 0.559 µM; in the test with CAKI-1 renal, 3.55 µM; in the test with NCI/ADR-RES ovarian, 3.86 µM; with MDA-MB-231 breast, 6.19 µM; in the test with EKVX NSCLC, 4.13 µM; in the test on ACHN renal, 6.97 µM. The results for the GI50 with HCT-116 colon, in the test with M14 melanoma and in the test on SNB-19 CNS were 1.83 µM, 5.88 µM and 28 µM, respectively. Besides, the TGI in the test with RPMI-8226 leukemia was 6.85 µM; with CAKI-1 renal, 23 µM; in the test with NCI/ADR-RES ovarian, above 100 µM; in the test on MDA-MB-231 breast, above 100 µM; in the test with EKVX NSCLC, above 100 µM; with ACHN renal it was above 100 µM. Also, the TGI in the test on HCT-116 colon is 5.96 µM; in the test with M14 melanoma, 27.7 µM; in the test on SNB-19 CNS, above 100 µM.

As to `C[C@]12CC[C@@H]3c4ccc(OC(=O)N(CCCl)CCCl)cc4CC[C@H]3[C@@H]1CC[C@@H]2OP(=O)(O)O`, the GI50 was 39.8 µM with RPMI-8226 leukemia; above 77.1 µM in the test on CAKI-1 renal; 49.5 µM in the test with NCI/ADR-RES ovarian; 26.8 µM in the test with MDA-MB-231 breast; 33.2 µM with EKVX NSCLC; 62.6 µM in the test on ACHN renal. Besides, the GI50 is 41.9 µM in the test with HCT-116 colon, 37.7 µM in the test on M14 melanoma and 28.5 µM in the test on SNB-19 CNS. The TGI in the test with RPMI-8226 leukemia was above 100 µM; in the test on CAKI-1 renal, above 100 µM; in the test on NCI/ADR-RES ovarian it was above 100 µM; in the test on MDA-MB-231 breast it was above 64.3 µM; in the test on EKVX NSCLC, above 100 µM; with ACHN renal, above 100 µM. Also, the TGI in the test on HCT-116 colon was above 100 µM; in the test with M14 melanoma it was above 100 µM; with SNB-19 CNS it was above 57.8 µM.

As to `COc1cc(C(=O)NN=C2c3ccccc3-c3ccccc32)cc(OC)c1OC`, the GI50 with RPMI-8226 leukemia was 3.5 µM; in the test with CAKI-1 renal, 2.14 µM; with NCI/ADR-RES ovarian it was 2.06 µM; in the test with MDA-MB-231 breast it was 2.93 µM; in the test with ACHN renal, 4.21 µM; in the test with HCT-116 colon, 2.71 µM. Moreover, the GI50 with M14 melanoma is 2.58 µM; with SNB-19 CNS, 6.56 µM; in the test on RXF 393 renal, 2.76 µM. The TGI in the test with RPMI-8226 leukemia is above 100 µM; in the test on CAKI-1 renal, 7.92 µM; with NCI/ADR-RES ovarian it was 11.7 µM; with MDA-MB-231 breast it was 20 µM; in the test with ACHN renal, 24.2 µM; with HCT-116 colon it was above 100 µM. The TGI is 92.4 µM with M14 melanoma, 43.5 µM with SNB-19 CNS and 29.3 µM in the test with RXF 393 renal.

Turning to `O=C(Nc1cccc(-n2cc(-c3ccncc3)c(-c3ccc(Cl)c(O)c3)n2)c1)Nc1ccc(Cl)c(Cl)c1`, the GI50 in the test with RPMI-8226 leukemia was 1.03 µM; in the test with CAKI-1 renal, 1.11 µM; in the test on NCI/ADR-RES ovarian it was 2.74 µM; with MDA-MB-231 breast, 1.18 µM; in the test with ACHN renal, 1.04 µM; with HCT-116 colon, 1.19 µM. The GI50 was 1.18 µM in the test with M14 melanoma, 1.46 µM in the test with SNB-19 CNS and 1 µM in the test on RXF 393 renal. Moreover, the TGI in the test on RPMI-8226 leukemia was above 32.5 µM; in the test on CAKI-1 renal, 14.3 µM; in the test with NCI/ADR-RES ovarian, above 32.5 µM; in the test with MDA-MB-231 breast, 8.33 µM; in the test on ACHN renal it was above 32.5 µM; in the test with HCT-116 colon, 5.73 µM. Moreover, the TGI is 6.97 µM in the test with M14 melanoma, above 32.5 µM in the test on SNB-19 CNS and 6.4 µM in the test on RXF 393 renal.

Source of the values: PubChem BioAssay (NCI).
